The target in data set [1] is T1, Melanin-concentrating hormone receptor 1 (Homo sapiens, UniProt Q99705). Put plainly: Inhibition of calcium influx into cells expressing hMCH-R1 in FLIPR assay. It is filed as functional.
Data set [2] in a line: Area under curve(0-6 h) for the compound administered orally at 10 mg/kg in rat. The data set is classed as ADME, organism-based. Also noted: time < 6 hr, dose 10 mg/kg, route oral. The note with it: in vivo, po.
Data set [3] concerns the target T1, Melanin-concentrating hormone receptor 1. Put plainly: Inhibition of human melanin concentrating hormone receptor 1.
Data set [4] addresses Sodium-dependent serotonin transporter (Rattus norvegicus, UniProt P31652). Briefly: Inhibition of 5-hydroxytryptamine reuptake by serotonin transporter.
Data set [5] has as its system Mus musculus. Briefly: Oral administration (30 mg/kg) required to reduced food intake relative to control at 6 hr post dose. It is filed as functional.
Data set [6] concerns Rattus norvegicus. Put plainly: Ability (3 mg/kg) required to produce a dose dependent decrease in food intake. The data set is classed as functional.
Data set [7] concerns Rattus norvegicus. Briefly: Ability (3 mg/kg) required to suppression the body weight gain relative to control. It is filed as functional.
Data set [8] deals with Mus musculus. Briefly: Oral administration (30 mg/kg) required to reduced food intake relative to control at 4 hr post dose. The data set is classed as functional.
Data set [9] concerns Rattus norvegicus. Briefly: Ability (10 mg/kg) required to produce a dose dependent decrease in food intake. It is filed as functional.
Data set [10] deals with Mus musculus. Put plainly: Oral administration (30 mg/kg) required to reduced food intake relative to control at 24 hr post dose. It is filed as functional.
Data set [11] has as its system Rattus norvegicus. Put plainly: Ability (10 mg/kg) required to suppression the body weight gain relative to control. It is filed as functional.

T1 sequence (Q99705 whole entry): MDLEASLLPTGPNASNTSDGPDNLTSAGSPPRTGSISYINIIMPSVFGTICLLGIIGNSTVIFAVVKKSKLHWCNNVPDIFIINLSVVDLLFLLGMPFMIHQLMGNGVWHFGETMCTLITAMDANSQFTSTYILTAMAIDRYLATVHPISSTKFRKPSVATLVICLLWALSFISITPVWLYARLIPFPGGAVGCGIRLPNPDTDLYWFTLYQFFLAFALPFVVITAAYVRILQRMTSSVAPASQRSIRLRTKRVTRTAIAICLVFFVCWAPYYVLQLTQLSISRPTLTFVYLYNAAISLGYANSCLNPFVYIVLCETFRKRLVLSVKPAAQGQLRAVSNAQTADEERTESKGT
Sequence of Sodium-dependent serotonin transporter (P31652 whole entry): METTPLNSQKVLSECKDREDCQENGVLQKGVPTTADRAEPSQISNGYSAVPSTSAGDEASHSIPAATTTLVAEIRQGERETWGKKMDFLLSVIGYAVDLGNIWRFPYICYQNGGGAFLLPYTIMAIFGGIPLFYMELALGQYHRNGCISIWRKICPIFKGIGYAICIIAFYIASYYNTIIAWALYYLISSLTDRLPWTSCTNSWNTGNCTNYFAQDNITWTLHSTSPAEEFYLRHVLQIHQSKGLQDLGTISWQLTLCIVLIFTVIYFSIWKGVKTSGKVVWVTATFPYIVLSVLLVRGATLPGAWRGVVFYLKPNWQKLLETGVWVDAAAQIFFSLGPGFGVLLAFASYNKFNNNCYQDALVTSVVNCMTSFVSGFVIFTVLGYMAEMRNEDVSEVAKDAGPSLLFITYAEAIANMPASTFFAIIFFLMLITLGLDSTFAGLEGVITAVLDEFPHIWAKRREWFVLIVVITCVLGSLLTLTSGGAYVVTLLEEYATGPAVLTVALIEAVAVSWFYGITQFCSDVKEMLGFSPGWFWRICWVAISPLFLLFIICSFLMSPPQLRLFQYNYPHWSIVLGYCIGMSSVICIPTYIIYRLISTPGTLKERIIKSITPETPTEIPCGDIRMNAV

As to `N#Cc1cccc(-c2ccc(N(CCN3CC[C@@H](O)C3)C(=O)Nc3ccc(F)c(C(F)(F)F)c3)cc2)c1`, the Kb in [1] turned out to be 8 nM. Also, in data set [2], the AUC(0-t) at 6 h was 2790 ng·h/mL. In [3], this compound returned a Ki of 1.8 nM.

As to `CNCCN(C(=O)Nc1ccc(F)c(Cl)c1)c1ccc(-c2cccc(C#N)c2)cc1`, in [1], the Kb is 6.2 nM. Moreover, the Ki in data set [3] worked out at 6 nM.

`CCS(=O)(=O)N1CCC(N(C(=O)Nc2ccc(F)c(C(F)(F)F)c2)c2ccc(-c3cccc(C#N)c3)cc2)CC1` gave a Ki in [3] of 166 nM.

In data set [2], `N#Cc1cccc(-c2ccc(N(CCN3CCCC3)C(=O)Nc3ccc(C(F)(F)F)c(F)c3)cc2)c1` gave an exposure AUC(0-t) at 6 h of 967 ng·h/mL.

For `CN1CCN(CCN(C(=O)Nc2ccc(C(F)(F)F)c(F)c2)c2ccc(-c3cccc(C#N)c3)cc2)CC1`, the Ki in data set [4] was > 1000 nM; in data set [3], 8.2 nM. The same compound had an AUC(0-t) at 6 h in [2] of 542 ng·h/mL.

Consider `N#Cc1cccc(-c2ccc(N(CCN3CC[C@H](O)C3)C(=O)Nc3ccc(C(F)(F)F)c(F)c3)cc2)c1`, for which the AUC(0-t) at 6 h in [2] came out at 1450 ng·h/mL. The Ki in [3] is 7.3 nM.

For `N#Cc1cccc(-c2ccc(N(CCN3CC[C@@H](O)C3)C(=O)Nc3ccc(F)c(Cl)c3)cc2)c1`, the AUC(0-t) at 6 h in [2] is 1080 ng·h/mL. This compound had a Ki in data set [3] of 7.1 nM.

As to `CN(C)CCN(C(=O)Nc1ccc(F)c(Cl)c1)c1ccc(-c2cccc(C#N)c2)cc1`, the Kb in data set [1] was 3.1 nM. The Ki in [4] came out at 1080 nM; in data set [3], 3.3 nM. Further, in data set [2], the AUC(0-t) at 6 h stood at 1950 ng·h/mL.

As to `CN(C)CCN(C(=O)Nc1cc(Cl)cc(Cl)c1)c1ccc(-c2cccc(C#N)c2)cc1`, the Ki in [3] came out at 19 nM.

As for `N#Cc1cccc(-c2ccc(N(CCN3CC[C@@H](O)C3)C(=O)Nc3cc(Cl)cc(Cl)c3)cc2)c1`, the AUC(0-t) at 6 h in data set [2] was 1850 ng·h/mL. In addition, the affinity in data set [3] corresponds to a Ki of 11 nM.

In turn, `CN(C)CCN(C(=O)Nc1ccc(C(F)(F)F)c(F)c1)c1ccc(-c2cccc(C#N)c2)cc1` returned an AUC(0-t) at 6 h in [2] of 4800 ng·h/mL. The same compound yielded a Ki in data set [3] of 6 nM.

The compound `CC(C)C(=O)N1CCC(N(C(=O)Nc2ccc(F)c(C(F)(F)F)c2)c2ccc(-c3cccc(C#N)c3)cc2)CC1` gave an inhibitory constant (Ki) in [3] of 374 nM. That is a sub-micromolar value.

As to `N#Cc1cccc(-c2ccc(N(CCN3CC[C@@H](O)C3)C(=O)Nc3ccc(C(F)(F)F)c(F)c3)cc2)c1`, the Food intake with Mus musculus [5] is 17%; in the data set with Rattus norvegicus [6], 16.9%; in the data set with Mus musculus [8], 16%; in the data set with Rattus norvegicus [9], 13.2%; in the data set with Mus musculus [10], 14%. In addition, the Kb in data set [1] was found to be 2 nM. The compound further gave an AUC(0-t) at 6 h in [2] of 5470 ng·h/mL. Also, the Body weight gain with Rattus norvegicus [7] is reported as 1.2 g; in the data set with Rattus norvegicus [11], 2.2 g. The compound further displayed a Ki in data set [3] of 8.9 nM.

For the origin of these results see ChEMBL document CHEMBL1140323, “Biaryl ureas as potent and orally efficacious melanin concentrating hormone receptor 1 antagonists for the treatment of obesity” (J Med Chem, 2005).
